Measured values published in patent publication US20250034116A1, “1,4-DIHETEROCYCLIC SUBSTITUTED AROMATIC RING OR AROMATIC HETEROCYCLIC COMPOUND AND USE THEREOF” (BeBetter Med Inc., priority 2022, published 2025).

Legend:
[1] = test system: CYP enzymes in human liver microsomes (HLM); experiment: Inhibition of 20-HETE production in human liver microsomes (HLM); type: biochemical
Method: (§1) Experimental principle: The inhibitory activity of 20-HETE production is evaluated by testing the inhibitory effects of the compound on human liver microsomes (HLM), rat liver microsomes (RLM), mouse liver microsomes (MLM), or […] CYP4 subtype enzymes (CYP4F2). This assay employs HLM, RLM, or MLM along with recombinant CYP4F2 (rCYP4F2) and recombinant CYP4A11 (rCYP4A11), which are […] CYP4 subtype enzymes, to detect the effects of the test compound at different concentrations on the metabolic rate of enzyme-specific substrates, to determine the inhibitory effects of the test compound on CYP enzymes in HLM, RLM, or MLM.
(§2) Experimental methods: Dissolve the test compound in DMSO, and subsequently dilute it with an acetonitrile and DMSO mixture (3:1). Add 2 μl of varying concentrations of the test compound and 100 μl of potassium phosphate buffer containing either liver microsomes or recombinant enzymes to a 96-well plate. After mixing well, transfer 30 μl to another well (in duplicate), add 15 μl of 400 μM substrate solution, and mix well again. Preheat at 37° C. for 10 minutes, and then add 15 μl of 6 mM NADPH and incubate at 37° C. for 25 minutes. After 25 minutes, add 160 μl of acetonitrile solution (containing 0.1 μg/ml internal standard) to stop the reaction. Mix well, centrifuge at 3500 g for 15 minutes, and then analyze the supernatant using LC-MS/MS.
(§3) Plot the compound concentration on the x-axis and the inhibition rate on the y-axis to draw the curve. Use GraphPad Prism 5 software to fit the curve and calculate the IC50. The formula is Y=Bottom+(Top−Bottom)/(1+10^((Log IC50−X)×HillSlope)). X represents the logarithmic concentration of the inhibitor, and Y represents the relative enzyme activity at a given inhibitor concentration (relative to the condition without the inhibitor).
(§4) Calculate the inhibition percentages at concentrations of 1000 nM, 500 nM, or 100 nM as well as the half-maximal inhibitory concentration (IC50) of the test compound from the above experiment.

[2] = test system: CYP enzymes in rat liver microsomes (RLM); experiment: Inhibition of 20-HETE production in rat liver microsomes (RLM); type: biochemical
Method: as §1, §2, §3, §4

O=C(C1CCCCC1O)N1CCC(c2ccc(-c3cn[nH]c3)cc2F)CC1 (single isomer, unassigned) [Compound 149a, (4-(2-fluoro-4-(1H-pyrazol-4-yl)phenyl)piperidin-1-yl)(2-hydroxycyclohexyl) methanone]
HLM (% inh @ 100 nM) [1]: 84.74%

O=C1CCCN1CC1CCN(c2cc(F)c(-c3cn[nH]c3)cc2F)CC1 [Compound 6, 1-((1-(2,5-difluoro-4-(1H-pyrazol-4-yl)phenyl)piperidin-4-yl)methyl)pyrrolidin-2-one]
RLM (% inh @ 500 nM) [2]: 23.02% | HLM (% inh @ 500 nM) [1]: 67.30%

O=C1CCCN1CC1CCN(c2ccc(-c3cn[nH]c3)cc2C(F)(F)F)CC1 [Compound 10, 1-((1-(4-(1H-pyrazol-4-yl)-2-(trifluoromethyl)phenyl)piperidin-4-yl)methyl)pyrrolidin-2-one]
IC50 [2]: 542 nM | IC50 [1]: 46.1 nM

Cc1cc(-c2cn[nH]c2)ccc1N1CCC(CN2CCCC2=O)CC1 [Compound 12, 1-((1-(2-methyl-4-(1H-pyrazol-4-yl)phenyl)piperidin-4-yl)methyl)pyrrolidin-2-one]
RLM (% inh @ 500 nM) [2]: 17.99% | HLM (% inh @ 500 nM) [1]: 76.91%

N#Cc1cc(-c2cn[nH]c2)ccc1N1CCC(CN2CCCC2=O)CC1 [Compound 13, 2-(4-((2-oxopyrrolidin-1-yl)methyl)piperidin-1-yl)-5-(1H-pyrazol-4-yl)benzonitrile]
RLM (% inh @ 500 nM) [2]: −4.72% | HLM (% inh @ 500 nM) [1]: 58.98%

COc1cc(-c2cn[nH]c2)ccc1N1CCC(CN2CCCC2=O)CC1 [Compound 14, 1-((1-(2-methoxy-4-(1H-pyrazol-4-yl)phenyl)piperidin-4-yl)methyl)pyrrolidin-2-one]
HLM (% inh @ 500 nM) [1]: 41.24%

O=Cc1cc(-c2cn[nH]c2)ccc1N1CCC(CN2CCCC2=O)CC1 [Compound 15, 2-(4-((2-oxopyrrolidin-1-yl)methyl)piperidin-1-yl)-5-(1H-pyrazol-4-yl)benzaldehyde]
RLM (% inh @ 500 nM) [2]: 12.62% | HLM (% inh @ 500 nM) [1]: 64.22%

NC(=O)c1cc(-c2cn[nH]c2)ccc1N1CCC(CN2CCCC2=O)CC1 [Compound 16, 2-(4-((2-oxopyrrolidin-1-yl)methyl)piperidin-1-yl)-5-(1H-pyrazol-4-yl)benzamide]
HLM (% inh @ 500 nM) [1]: 41.22%

O=C1CCCN1CC1CCN(c2ccc(-c3cn[nH]c3)cc2CO)CC1 [Compound 17, 1-((1-(2-(hydroxymethyl)-4-(1H-pyrazol-4-yl)phenyl)piperidin-4-yl)methyl)pyrrolidin-2-one]
RLM (% inh @ 500 nM) [2]: 17.66% | HLM (% inh @ 500 nM) [1]: 65.27%

COC(=O)c1cc(-c2cn[nH]c2)ccc1N1CCC(CN2CCCC2=O)CC1 [Compound 18, methyl 2-(4-((2-oxopyrrolidin-1-yl)methyl)piperidin-1-yl)-5-(1H-pyrazol-4-yl)benzoate]
RLM (% inh @ 500 nM) [2]: 8.61% | HLM (% inh @ 500 nM) [1]: 47.87%

CN(C)c1cc(-c2cn[nH]c2)ccc1N1CCC(CN2CCCC2=O)CC1 [Compound 20, 1-((1-(2-(dimethylamino)-4-(1H-pyrazol-4-yl)phenyl)piperidin-4-yl)methyl)pyrrolidin-2-one]
HLM (% inh @ 500 nM) [1]: 36.16%

O=C1CCCN1CC1CCN(c2ccc(-c3cn[nH]c3)cn2)CC1 [Compound 21, 1-((1-(5-(1H-pyrazol-4-yl)pyridin-2-yl)piperidin-4-yl)methyl)pyrrolidin-2-one]
HLM (% inh @ 500 nM) [1]: 40.01%

O=C1CCCN1CC1CCN(c2ccc(-c3cn[nH]c3)nc2)CC1 [Compound 22, 1-((1-(6-(1H-pyrazol-4-yl)pyridin-3-yl)piperidin-4-yl)methyl)pyrrolidin-2-one]
RLM (% inh @ 500 nM) [2]: 34.61% | HLM (% inh @ 500 nM) [1]: 53.10%

O=C1CCCN1CC1CCN(c2ncc(-c3cn[nH]c3)cn2)CC1 [Compound 23, 1-((1-(5-(1H-pyrazol-4-yl)pyrimidin-2-yl)piperidin-4-yl)methyl)pyrrolidine-2-one]
HLM (% inh @ 500 nM) [1]: −24.84%

O=C1CCC(=O)N1CC1CCN(c2ccc(-c3cn[nH]c3)cc2)CC1 [Compound 28, 1-((1-(4-(1H-pyrazol-4-yl)phenyl)piperidin-4-yl)methyl)pyrrolidine-2,5-dione]
RLM (% inh @ 500 nM) [2]: 16.98% | HLM (% inh @ 500 nM) [1]: 55.98%

O=C1N(CC2CCN(c3ccc(-c4cn[nH]c4)cc3)CC2)CCC12CCCCC2 [Compound 31, 2-((1-(4-(1H-pyrazol-4-yl)phenyl)piperidin-4-yl)methyl)-2-azaspiro[4.5]decan-1-one]
RLM (% inh @ 500 nM) [2]: 14.73% | HLM (% inh @ 500 nM) [1]: 68.02%

O=C1C2CCC(C2)N1CC1CCN(c2ccc(-c3cn[nH]c3)cc2)CC1 (stereo not shown) [Compound 33, 2-((1-(4-(1H-pyrazol-4-yl)phenyl)piperidin-4-yl)methyl)-2-azabicyclo[2.2.1]heptan-3-one]
RLM (% inh @ 500 nM) [2]: 8.80% | HLM (% inh @ 500 nM) [1]: 61.47%

O=C1CCCN1CC1CCN(c2ccc(-c3cnoc3)c(F)c2F)CC1 [Compound 37, 1-((1-(2,3-difluoro-4-(isoxazol-4-yl)phenyl)piperidin-4-yl)methyl)pyrrolidin-2-one]
RLM (% inh @ 500 nM) [2]: 59.01% | HLM (% inh @ 500 nM) [1]: 82.89%

c1cc(N2CCC(CN3CCCC3)CC2)ccc1-c1cn[nH]c1 [Compound 40, 1-(4-(1H-pyrazol-4-yl)phenyl)-4-(pyrrolidin-1-ylmethyl)piperidine]
RLM (% inh @ 500 nM) [2]: 26.22% | HLM (% inh @ 500 nM) [1]: 52.40%

O=C(C1CCN(c2ccc(-c3cn[nH]c3)cc2)CC1)N1CCNCC1 [Compound 51, (1-(4-(1H-pyrazol-4-yl)phenyl)piperidin-4-yl)(piperazin-1-yl) methanone]
HLM (% inh @ 500 nM) [1]: 30.17%

O=C1CCCN1Cc1ccc2c(c1)CN(c1ccc(-c3cn[nH]c3)cc1)C2 [Compound 126, 1-(2-(4-(1H-pyrazol-4-yl)phenyl)isoindolin-5-ylmethyl)pyrrolidin-2-one]
HLM (% inh @ 500 nM) [1]: 64.15%

O=C(N1CCN(c2ccc(-c3cn[nH]c3)cc2F)CC1)N1CC2CCCC2C1 (stereo not shown) [Compound 133, (4-(2-fluoro-4-(1H-pyrazol-4-yl)phenyl)piperazin-1-yl)(hexahydrocyclopenta[c]pyrrol-2 (1H)-yl) methanone]
HLM (% inh @ 100 nM) [1]: 87.90%

O=S(=O)(c1ccc(F)cc1)N1CCN(c2ccc(-c3cn[nH]c3)cc2F)CC1 [Compound 134, 1-(2-fluoro-4-(1H-pyrazol-4-yl)phenyl)-4-((4-fluorophenyl)sulfonyl)piperazine]
IC50 [1]: 21.9 nM

O=C(N1CCC(c2ccc(-c3cn[nH]c3)cc2)CC1)C1(O)CCCCC1 [Compound 139, (4-(4-(1H-pyrazol-4-yl)phenyl)piperidin-1-yl)(1-hydroxycyclohexyl) methanone]
HLM (% inh @ 100 nM) [1]: 88.13%

O=C(C1CCCC(O)C1)N1CCC(c2ccc(-c3cn[nH]c3)cc2F)CC1 (stereo not shown) [Compound 148, (4-(2-fluoro-4-(1H-pyrazol-4-yl)phenyl)piperidin-1-yl)(3-hydroxycyclohexyl) methanone]
HLM (% inh @ 100 nM) [1]: 85.60%

CC(C)(O)CC(=O)N1CCC(c2ccc(-c3cn[nH]c3)cc2F)CC1 [Compound 151, 1-(4-(2-fluoro-4-(1H-pyrazol-4-yl)phenyl)piperidin-1-yl)-3-hydroxy-3-methylbutan-1-one]
HLM (% inh @ 100 nM) [1]: 82.28%

O=C(C1CCN(c2ccc(-c3cn[nH]c3)cc2F)CC1)N1Cc2ccccc2C1 [Compound 156, (1-(2-fluoro-4-(1H-pyrazol-4-yl)phenyl)piperidin-4-yl)(isoindolin-2-yl) methanone]
IC50 [1]: 26.2 nM

O=C(C1CCN(c2ccc(-c3cn[nH]c3)cc2)CC1)N1Cc2cccnc2C1 [Compound 157, (1-(4-(1H-pyrazol-4-yl)phenyl)piperidin-4-yl)(5,7-dihydro-6H-pyrrolo[3,4-b]pyridin-6-yl) methanone]
IC50 [1]: 17.6 nM

N#Cc1ccc2c(c1)CN(C(=O)C1CCN(c3ccc(-c4cn[nH]c4)cc3)CC1)C2 [Compound 158, 2-(1-(4-(1H-pyrazol-4-yl)phenyl)piperidine-4-carbonyl) isoindoline-5-carbonitrile]
IC50 [1]: 11.7 nM

O=C1C2CCCC2CN1CC1CCN(c2ccc(-c3cn[nH]c3)cc2F)CC1 (stereo not shown) [Compound 160, 2-((1-(2-fluoro-4-(1H-pyrazol-4-yl)phenyl)piperidin-4-yl)methyl) hexahydrocyclopenta[c]pyrrol-1(2H)-one]
IC50 [1]: 23.2 nM
